Test results as given in patent US20190185479A1, “BICYCLIC NITROGENATED HETEROCYCLIC COMPOUND” (MITSUBISHI TANABE PHARMA CORPORATION, priority 2016, published 2019).

Columns and labels:
Type in all cases: biochemical
[1] = target: T1, Human PDE7B (hPDE7B) (Homo sapiens, UniProt Q9NP56); assay: Measurement of PDE7 inhibitory activity (Experimental Example 1; residual cAMP, LANCE Ultra cAMP TR-FRET); conditions: cAMP 3 nmol/L, room temperature 60 minutes
T1 construct: made in house; host or cells: COS-7 cells
T1 sequence (Q9NP56 whole entry): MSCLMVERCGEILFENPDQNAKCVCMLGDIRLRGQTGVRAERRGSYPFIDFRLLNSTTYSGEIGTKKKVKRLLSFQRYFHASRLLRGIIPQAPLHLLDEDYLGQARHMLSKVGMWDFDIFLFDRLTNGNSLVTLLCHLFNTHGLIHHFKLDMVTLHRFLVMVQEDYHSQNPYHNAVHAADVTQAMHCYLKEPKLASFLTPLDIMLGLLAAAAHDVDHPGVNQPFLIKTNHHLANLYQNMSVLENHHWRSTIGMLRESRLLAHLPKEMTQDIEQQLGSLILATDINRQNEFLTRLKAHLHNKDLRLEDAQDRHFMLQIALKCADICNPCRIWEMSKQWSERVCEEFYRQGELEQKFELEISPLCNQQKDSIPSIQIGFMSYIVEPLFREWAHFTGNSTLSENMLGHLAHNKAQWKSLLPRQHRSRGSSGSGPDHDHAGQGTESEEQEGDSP
Procedure, shortened: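 hPDE7B from transfected COS-7 cells reacted with 3 nmol/L cAMP (final) and compound (2% DMSO) in 50 mmol/L Tris-HCl pH 7.5, 1 mmol/L MgCl2, 0.1% BSA, 0.5 mmol/L DTT, 60 min at room temperature. Reaction stopped with IBMX; residual cAMP measured by TR-FRET. Inhibition scaled between no-compound and no-enzyme controls.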

[2] = target: T2, hPDE4D (Homo sapiens, UniProt Q08499); assay: PDE7 selectivity test (Ki value), Experimental Example 2: hPDE4D; conditions: Ki from IC50 by Cheng-Prusoff, read-out: PDE inhibition constant Ki, PDE4
T2 construct: purchased SB Drug Discovery
T2 sequence (Q08499 whole entry): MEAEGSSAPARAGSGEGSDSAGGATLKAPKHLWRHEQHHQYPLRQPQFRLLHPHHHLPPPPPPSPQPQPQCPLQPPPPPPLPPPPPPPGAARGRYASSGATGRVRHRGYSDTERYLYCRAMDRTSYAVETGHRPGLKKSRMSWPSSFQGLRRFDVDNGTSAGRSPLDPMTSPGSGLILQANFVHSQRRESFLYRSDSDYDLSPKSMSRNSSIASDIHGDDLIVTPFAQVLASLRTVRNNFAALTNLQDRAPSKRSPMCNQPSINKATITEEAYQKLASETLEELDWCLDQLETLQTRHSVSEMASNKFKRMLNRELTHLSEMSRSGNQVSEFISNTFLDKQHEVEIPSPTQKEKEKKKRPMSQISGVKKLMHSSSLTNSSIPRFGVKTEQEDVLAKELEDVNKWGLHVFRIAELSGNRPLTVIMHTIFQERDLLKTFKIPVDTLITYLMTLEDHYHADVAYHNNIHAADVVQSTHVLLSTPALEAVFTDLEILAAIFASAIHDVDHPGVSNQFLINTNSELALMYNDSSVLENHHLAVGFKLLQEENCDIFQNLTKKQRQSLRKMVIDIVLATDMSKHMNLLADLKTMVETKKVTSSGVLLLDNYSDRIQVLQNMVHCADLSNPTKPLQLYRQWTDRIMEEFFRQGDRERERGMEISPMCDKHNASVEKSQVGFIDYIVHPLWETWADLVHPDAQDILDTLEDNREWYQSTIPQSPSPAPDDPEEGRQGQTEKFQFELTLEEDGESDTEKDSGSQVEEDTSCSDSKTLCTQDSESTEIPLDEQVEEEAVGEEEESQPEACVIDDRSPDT
Description: (§1) hPDE1A, hPDE2A, hPDE3A, hPDE4D, hPDE5A, and hPDE8B were purchased from SB Drug Discovery. hPDE7B was isolated by the same method as [Method for preparing samples 1], and hPDE9A, hPDE10A, and hPDE11A were isolated by the same method as hPDE7B, i.e., isolated from COS-7 cells transfected with plasmids encoding each PDE. PDE6 was purified and isolated from bovine retina (bovine PDE6).
(§2) Prior to the calculation of Ki value, Km value of each PDE against cAMP or cGMP was calculated. Each PDE diluted with an assay buffer so that it would have an appropriate enzyme activity, and six or more concentrations of cAMP or cGMP were reacted at room temperature for 60 minutes. Regarding PDE using cAMP as a substrate, PDELight (trademark) HTS cAMP phosphodiesterase Kit (Lonza) was used to measure a degradation product, 5′-AMP. Also, regarding PDE using cGMP as a substrate, […] of perchloric acid was added to the mixture to stop the reaction, and the resulting mixture was subjected to LC-MS/MS to measure the residual cGMP concentration. The amount of degraded substrate in each substrate concentration was calculated, the concentration of the added substrate was plotted on the horizontal axis, the amount of degraded substrate was plotted on the vertical axis, and Km value was calculated by non-linear regression on the basis of Michaelis-Menten equation. Km value (substrate) of each PDE was hPDE1A: 4.3 (cGMP), hPDE2A: 36 (cAMP), hPDE3A: 0.11 (cAMP), hPDE4D: 0.90 (cAMP), hPDE5A: 3.9 (cGMP), bovine PDE6:9.8 (cGMP), hPDE7B: 0.015 (cAMP), hPDE8B: 0.63 (cAMP), hPDE9A: 0.0037 (cGMP), hPDE10A: 0.051 (cAMP), and hPDE11A: 1.4 (cAMP) μmol/L, respectively.
(§3) Next, PDE inhibition assay of a compound was carried out using each PDE. The PDE inhibition assay was basically carried out by the same enzyme reaction method as [Assay procedure 1], and the degraded amount of cAMP or cGMP was measured by the same method as [Assay procedure 2]. In the assay, a concentration approximated to Km value of each PDE against cAMP or cGMP was used as a substrate concentration. Meanwhile, regarding hPDE5A, hPDE8B, and hPDE9A, IMAP (trademark) FP Phosphodiesterase Evaluation Assay Kit (Molecular Devices) was used to measure the degradation of FAM-cAMP or FAM-cGMP by fluorescence depolarization technique.
(§4) Each compound was evaluated at six or more concentrations with common ratio 10. Each inhibition rate was calculated according to <Method for data calculation 1>, and then each IC50 value was calculated by sigmoid regression. The resulting IC50 value was used in the following Cheng-Prusoff equation to calculate each Ki value. Ki=IC50/(1+[S]/Km), wherein [S] represents a substrate concentration used

[3] = target: T3, hPDE5A (Homo sapiens, UniProt O76074); assay: PDE7 selectivity test (Ki value), Experimental Example 2: hPDE5A; conditions: Ki from IC50 by Cheng-Prusoff, read-out: PDE inhibition constant Ki, PDE5
T3 construct: purchased SB Drug Discovery
Description: as §1, §2, §3, §4

[4] = target: T2, hPDE4D; assay: PDE4 inhibition assay (IC50), Experimental Example 3; conditions: hPDE4D; read-out: PDE inhibition assay IC50, PDE4
Procedure, shortened: (§5)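 Recombinant human enzymes incubated with compound and 3 nmol/L cAMP (final) in Tris-HCl pH 7.5 buffer with MgCl2, BSA, DTT, 2% DMSO final, 60 min at room temperature. Residual cAMP measured by TR-FRET (LANCE Ultra), reaction stopped with 0.5 mmol/L IBMX. IC50 from inhibition relative to no-compound (0%) and no-enzyme (100%) controls.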

[5] = target: hPDE10A (Homo sapiens, UniProt Q9Y233); assay: PDE10 inhibition assay (IC50), Experimental Example 3; conditions: for IC50: hPDE10A, read-out: PDE inhibition assay IC50, PDE10; for inhibition at 10 µM: at 10 μmol/L, read-out: inhibition rate (%) at prescribed concentration, PDE10
hPDE10A, sequence (Q9Y233 290-1055 limits assumed): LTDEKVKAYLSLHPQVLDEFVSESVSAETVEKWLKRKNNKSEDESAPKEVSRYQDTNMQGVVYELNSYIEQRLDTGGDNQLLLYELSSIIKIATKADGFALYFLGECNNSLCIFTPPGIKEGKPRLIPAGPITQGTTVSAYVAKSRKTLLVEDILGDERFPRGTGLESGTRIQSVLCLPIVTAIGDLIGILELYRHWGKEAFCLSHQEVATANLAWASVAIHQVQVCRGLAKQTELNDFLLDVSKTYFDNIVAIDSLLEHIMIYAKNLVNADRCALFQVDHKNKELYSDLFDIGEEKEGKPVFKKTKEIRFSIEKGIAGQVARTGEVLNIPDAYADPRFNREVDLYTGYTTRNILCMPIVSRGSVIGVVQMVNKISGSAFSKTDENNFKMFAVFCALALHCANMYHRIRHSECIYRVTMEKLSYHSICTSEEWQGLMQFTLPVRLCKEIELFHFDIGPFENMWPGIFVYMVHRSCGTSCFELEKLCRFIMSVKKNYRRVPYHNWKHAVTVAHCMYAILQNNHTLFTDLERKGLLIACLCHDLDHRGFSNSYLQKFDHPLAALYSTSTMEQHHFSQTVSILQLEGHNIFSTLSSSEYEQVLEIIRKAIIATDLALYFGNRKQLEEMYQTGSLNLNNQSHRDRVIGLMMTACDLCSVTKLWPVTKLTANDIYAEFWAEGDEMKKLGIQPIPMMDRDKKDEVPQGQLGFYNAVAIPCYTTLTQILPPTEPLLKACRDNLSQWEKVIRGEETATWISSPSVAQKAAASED
Procedure, shortened: as §5

Row | IC50 [1] [nM] | Ki [2] [nM] | Ki [3] [nM] | IC50 [4] [nM] | IC50 [5] [nM] | inhibition at 10 µM [5] [%] | SMILES
1 | < 10 | 4200 | > 98000 | 9200 | 3490 | – | CC1CCCCC1n1nnc2c(N)ncnc21 (single isomer, unassigned) [Example 191, 3-(cis-2-methylcyclohexyl)-3H-[1,2,3]triazolo[4,5-d]pyrimidin-7-amine]
2 | < 10 | 1200 | > 98000 | 1510 | 2930 | – | C[C@@H]1CCC[C@H](c2nnc3c(N)nccn23)C1 [Example 204, 3-[(1S,3R)-3-methylcyclohexyl][1,2,4]triazolo[4,3-a]pyrazin-8-amine]
3 | 10 | > 4800 | > 9800 | 6220 | – | 30 | Nc1nccn2c(C3CCCCC3)nnc12 [Example 141, 3-cyclohexyl[1,2,4]triazolo[4,3-a]pyrazin-8-amine]
4 | 50 | 220 | > 9800 | 540 | 1750 | – | Cc1nc(N)c2nnn(C3CCCCC3)c2n1 [Example 4]
5 | 50 | 4400 | > 98000 | 7820 | – | 27 | Nc1ncnc2c1nnn2C1CCCCC1 [Example 3, 3-cyclohexyl-3H-[1,2,3]triazolo[4,5-d]pyrimidin-7-amine]
